Results on one compound are retold here after ChEMBL document CHEMBL3392976, “The discovery of novel 3-(pyrazin-2-yl)-1H-indazoles as potent pan-Pim kinase inhibitors” (Bioorg Med Chem Lett, 2015).

Data set [1] in a line: in vivo. As to conditions: Sprague-Dawley, rat, iv, 2 mg/kg.
Data set [2] in a line: in vivo. As to conditions: Sprague-Dawley, rat, iv, 2 mg/kg. The source holds these as a separate data set.
Data set [3] in a line: in vivo. As to conditions: Sprague-Dawley, rat, iv, 2 mg/kg. The source holds these as a separate data set.
Data set [4] is described as follows: in vivo. As to conditions: Sprague-Dawley, rat, plasma, po, 5 mg/kg.
The nature of data set [5]: in vivo. As to conditions: Sprague-Dawley, rat, po, 5 mg/kg.

A word on the clearance: it is the rate of elimination divided by the concentration. A high value points to a high capacity for elimination. The term Vd denotes a proportionality between amount in the body and measured concentration, not a real space. The half-life is the time in which the quantity being followed falls by half. The low end stands for fast loss, the high end for slow loss. As a reminder, the AUC is concentration integrated over time. A low value points to low exposure. By bioavailability is commonly meant dose-corrected exposure relative to a reference, in per cent. A higher bioavailability goes with much systemic uptake. For the compound `Fc1cccc(F)c1-c1ccc2[nH]nc(-c3cncc(O[C@H]4CNCCC45CC5)n3)c2c1`, the clearance in “in vivo [1]” is 16.7 mL/min/kg. Also, in the data set “in vivo [2]”, the Vd came to 3.7 L/kg. For the same compound, in the data set “in vivo [3]”, the half-life is 2.7 h. The AUC in the data set “in vivo [4]” stood at 12.2 µM·h. The same compound had a bioavailability in “in vivo [5]” of 89%.
